Assay results published in patent US5371102A, “Compositions and methods of inhibiting thyroid activity” (priority 1993, dated 1994).
Entries after “also recorded” stand apart in the source; their conditions may differ. Where two headings read alike, the source gives them in different places.

Assays:
[1] = target: T1, TPX (Sus scrofa, UniProt P09933); experiment: TPX-catalyzed iodide oxidation (triiodide formation), spectrophotometric; format: biochemical, hog; settings: TPX, H2O2 and I-
T1 sequence (P09933 15-926): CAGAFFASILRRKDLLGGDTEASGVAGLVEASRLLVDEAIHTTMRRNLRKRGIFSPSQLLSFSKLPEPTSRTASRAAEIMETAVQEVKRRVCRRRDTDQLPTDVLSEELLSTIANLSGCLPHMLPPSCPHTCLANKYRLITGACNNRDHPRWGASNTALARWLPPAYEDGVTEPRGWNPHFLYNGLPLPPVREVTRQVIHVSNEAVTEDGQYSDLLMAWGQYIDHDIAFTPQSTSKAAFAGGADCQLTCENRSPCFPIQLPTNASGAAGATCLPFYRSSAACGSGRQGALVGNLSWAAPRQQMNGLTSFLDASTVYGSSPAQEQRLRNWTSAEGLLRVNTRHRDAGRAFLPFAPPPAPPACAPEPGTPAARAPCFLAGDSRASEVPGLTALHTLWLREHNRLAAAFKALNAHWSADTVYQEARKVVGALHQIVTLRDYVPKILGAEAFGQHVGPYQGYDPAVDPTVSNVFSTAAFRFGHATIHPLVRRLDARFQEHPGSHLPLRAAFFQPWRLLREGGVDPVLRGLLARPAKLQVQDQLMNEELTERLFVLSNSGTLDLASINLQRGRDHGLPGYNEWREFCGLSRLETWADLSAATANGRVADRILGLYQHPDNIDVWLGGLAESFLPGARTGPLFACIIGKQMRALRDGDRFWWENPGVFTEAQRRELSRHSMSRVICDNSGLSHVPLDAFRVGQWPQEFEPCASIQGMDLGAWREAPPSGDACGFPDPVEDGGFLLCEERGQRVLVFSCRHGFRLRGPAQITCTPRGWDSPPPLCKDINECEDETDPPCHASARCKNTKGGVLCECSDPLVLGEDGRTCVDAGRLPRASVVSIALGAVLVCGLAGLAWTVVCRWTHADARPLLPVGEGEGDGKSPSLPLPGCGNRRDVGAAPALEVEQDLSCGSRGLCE
Source text: (§1) Materials used in the examples below were obtained from the following sources. Bovine LPX, bovine liver catalase, glucose oxidase, 30% hydrogen peroxide, glucose, guaiacol, ABTS and deuterium oxide were purchased from Sigma Chemical Company. Selenium dioxide, MBI ^13 CH3 I and PBA were purchased from Aldrich Chemical Company and PBA was purified as previously described by Fieset et al., Reagents for Organic Synthesis, Vol. I, pp.135-139, John Wiley and Sons, N.Y. (1967). LPX purity was checked by PAGE, as described by Doerge, D.R., et al. in, Biochem. Pharmacol., Vol.36, pp.972-974 (1986). TPX was purified from hog thyroids obtained from a local slaughterhouse by published procedures. Doerge & Takazowa, Chemical Research in Toxicology, Vol. 3, pp. 98-101 (1990). TPX purity was determined by LC and its concentration determined spectophotometrically. Hydroperoxide concentrations were determined by iodometric titration, as described by Kolthoff, et al., in "Quantitative Chemical Analysis", Macmillan, London, pp.842-860 (1969). MMBI, and BI were synthesized by published procedures as described by Doerge, D.R., Biochem, Vol. 27, pp. 3697-3700 (1988) and were recrystallized from aqueous ethanol. MeBI was purified by distillation and DMeBI^+ was synthesized and purified by recrystallization from ethyl acetate/methanol. 1-^13 C-MMBI was synthesized from ^13 CH3 I according to the procedure disclosed by Doerge, D.R., in, J. Lab. Comp. and Radiopharm., Vol.25, pp.985-990 (1988). PPHP and PPA were prepared, purified and analyzed as previously described by Doerge, Biochem, Vol.27, p.11 (1988). The methyl ester of 1-methyl-benzimidazole-2-sulfinic acid was prepared by addition of hydrogen peroxide (5 equivalents of a 10 M solution) to MMBI (0.1 M) in methanol. The products, MeBI and the ester, were obtained following preparative TLC on silica (Uniplate, Analtech Co., Newark, DL) using 5% methanol/chloroform as eluant. […]
1,3-diacetyl MBI (AczMBI) was synthesized according to the method published by Doerge et al., Syn. […] Varying quantities of Ac2 MBI were incubated with TPX, H2 O2, and I^-. […]

[2] = system: LPX and TPX; experiment: suicide inhibition of peroxidases (summary statements); format: biochemical; settings: for suicide inhibition: summary of own examples
[3] = system: TPX; settings: cited from earlier work
[4] = system: LPX; settings: cited from earlier work
[5] = target: T1, TPX; experiment: TPX inactivation; format: biochemical, hog; settings: presence of hydrogen peroxide
Source text: (§2) Materials used in the examples below were obtained from the following sources. Bovine LPX, bovine liver catalase, glucose oxidase, 30% hydrogen peroxide, glucose, guaiacol, ABTS and deuterium oxide were purchased from Sigma Chemical Company. Selenium dioxide, MBI ^13 CH3 I and PBA were purchased from Aldrich Chemical Company and PBA was purified as previously described by Fieset et al., Reagents for Organic Synthesis, Vol. I, pp.135-139, John Wiley and Sons, N.Y. (1967). LPX purity was checked by PAGE, as described by Doerge, D.R., et al. in, Biochem. Pharmacol., Vol.36, pp.972-974 (1986). TPX was purified from hog thyroids obtained from a local slaughterhouse by published procedures. Doerge & Takazowa, Chemical Research in Toxicology, Vol. 3, pp. 98-101 (1990). TPX purity was determined by LC and its concentration determined spectophotometrically. Hydroperoxide concentrations were determined by iodometric titration, as described by Kolthoff, et al., in "Quantitative Chemical Analysis", Macmillan, London, pp.842-860 (1969). MMBI, and BI were synthesized by published procedures as described by Doerge, D.R., Biochem, Vol. 27, pp. 3697-3700 (1988) and were recrystallized from aqueous ethanol. MeBI was purified by distillation and DMeBI^+ was synthesized and purified by recrystallization from ethyl acetate/methanol. 1-^13 C-MMBI was synthesized from ^13 CH3 I according to the procedure disclosed by Doerge, D.R., in, J. Lab. Comp. and Radiopharm., Vol.25, pp.985-990 (1988). PPHP and PPA were prepared, purified and analyzed as previously described by Doerge, Biochem, Vol.27, p.11 (1988). The methyl ester of 1-methyl-benzimidazole-2-sulfinic acid was prepared by addition of hydrogen peroxide (5 equivalents of a 10 M solution) to MMBI (0.1 M) in methanol. The products, MeBI and the ester, were obtained following preparative TLC on silica (Uniplate, Analtech Co., Newark, DL) using 5% methanol/chloroform as eluant.
DMMBI was synthesized according to a published method. Duffin et al., J. Chem. Soc., Part II, pp.364-365 (1956). Samples including TPX, H2 O2, and I^- were incubated with and without DMMBI. Triiodide formation was observed spectrophotometrically with respect to time.

[6] = target: T2, LPX (Bos taurus, UniProt P80025); experiment: LPX suicide inactivation kinetics; format: biochemical, bovine
T2 construct: purchased Sigma Chemical Company
Source text: as §2
Inhibition of LPX activity by thiones was determined from the kinetics of iodide ion, guaiacol or ABTS oxidation assays conducted at 25° C. Kinetic parameters of suicide inactivation were determined as previously described. Doerge, Biochem. Vol.27, pp.3697-3700 (1988).

[7] = target: T2, LPX; experiment: LPX-mediated covalent binding of labelled thiocarbamides to LPX; parameters: species or system bovine; settings: +H2O2 vs. +H2O2 +KI; 14C- and 35S-labelled
Source text: as §2
LPX-mediated covalent binding of ^14 C- and ^35 S-labelled thiocarbamides to LPX under iodide-dependent and -independent conditions was measured.

[8] = target: T1, TPX; experiment: covalent binding to TPX in the presence of H2O2; parameters: species or system hog
Source text: as §1, with “MeBI was purified by distillation and DMeBI^+ was synthesized and purified by recrystallization from ethyl acetate/methanol. 1-^13 C-MMBI was synthesized from ^13 CH3 I according to the procedure disclosed by Doerge, D.R., in, J. Lab. Comp. and Radiopharm., Vol.25, pp.985-990 (1988).” left out, “(1988).” for “(1988). The methyl ester of 1-methyl-benzimidazole-2-sulfinic acid was prepared by addition of hydrogen peroxide (5 equivalents of a 10 M solution) to MMBI (0.1 M) in methanol. The products, MeBI and the ester, were obtained following preparative TLC on silica (Uniplate, Analtech Co., Newark, DL) using 5% methanol/chloroform as eluant.”

[9] = chemical oxidation stoichiometry of thiones; format: physicochemical; settings: for moles of oxidant required for total reaction: PBA, FIG. 4
Experimental: Oxidation stoichiometries were determined for the thione compounds MBI, MMBI and DMMBI by incubating the thiones with varying amounts of PBA (0-250μM). The rapid reaction (t1/2 <10 s at 25° C.) of benzimidazole-2-thiones with PBA in methanol provided a convenient method for determining oxidation stoichiometry.
(§3) Oxidation stoichiometries were determined spectrophoto, metrically, using a Hewlett Packard 8452A diode array spectrophotometer, by measuring thione concentration at 305 nm as a function of PBA concentration. Hydroperoxide content was determined iodometrically. Stoichiometries of substrate consumption/product formation were also determined by addition of limiting amounts of PBA to 100 μM MBI or MMBI in 50% methanol/pH 7 phosphate. The disappearance of thione and the production of BI, MeBI and bisulfite ion was determined after one hour at 25° C. The production of bisulfite ion was measured […]. The production of sulfate ion was determined by ion chromatography using a AS4A column (Dionex Co., Sunnyvale, CA) with a Dionex Gradient Pump Module and a Dionex CDM II conductivity detector equipped with an AMMS suppressor using 3 mM carbonate/bicarbonate buffer pH 10 as eluant at 2.0 ml/min. Reaction products were also monitored by ^1 H NMR performed at 300 MHz using a Nicolet NT300 or General Electric QE300 spectrometer DSS as a reference.

[10] = thione reaction with PBA in aqueous buffered methanol, product ratios; format: physicochemical; settings: thione 100 μM, PBA 0-200 μM
Experimental: as §3
The reaction of MBI and MMBI with PBA was also examined in aqueous buffered methanol. Thione (100 μM) was incubated with varying concentrations of PBA (0-200 μM). Reactant and product quantities were determined by LC as described in example 1. The ratios of product formation to thione consumption were calculated, and are reported below in Table 1. The values are averages of two slope determinations, i.e., moles of product formed or reactant consumed vs. moles of oxidant added, each determined from at least five data points.

[11] = kinetics of thione oxygenation by hydrogen peroxide/TFA; format: physicochemical; settings: thione 25 μM, H2O2 34 mM, TFA 163 mM in methanol, 25° C.; relative to DMMBI
Experimental: The kinetics of thione oxygenation were determined for MBI, MMBI and DMMBI. Oxygenation by hydrogen peroxide/TFA was measured spectrophotometrically (305 nm) at 25° C. by addition of thione (final concentration 25 μM) to hydrogen peroxide (34 mM) and TFA (163 mM) in methanol.

[12] = system: LPX and TPX; settings: currently used drugs, background; cited from earlier work
[13] = cited from earlier work

CC(=O)n1c(=S)n(C(C)=O)c2ccccc21 [Ac2 MBI, 1,3-diacetylbenzimidazole-2-thione]
effect on triiodide formation [1]: exhibits similar inhibition of triiodide formation as was observed with DMMBI
selectivity for iodide ion oxidation ([2]; alternate substrate mechanism): block only reactions involving iodide ion oxidation
suicide inhibition [2]: not suicide inhibitors

S=C1NCCN1 [ETU, imidazolidine-2-thione]
inhibition of TPX-catalyzed iodination [3]: inhibits TPX- and LPX-catalyzed iodination reactions
inhibition of LPX-catalyzed iodination [4]: inhibits TPX- and LPX-catalyzed iodination reactions

Sc1nc2ccccc2[nH]1 [MBI, benzimidazole-2-thione]
TPX inactivation [5]: rapid, irreversible loss of LPX and TPX activity; also recorded: cause rapid, irreversible enzyme inactivation
partition ratio (LPX inactivation) ([6]; 25° C.): approximately 3
LPX inactivation / loss of LPX activity ([6]; presence of hydrogen peroxide): rapid, irreversible loss of LPX and TPX activity; also recorded: cause rapid, irreversible enzyme inactivation
KI (inactivation) ([6]; read-out: Ki (LPX inactivation); 25° C.): 0.1 nM
covalent binding to LPX [7]: become covalently bound to LPX
covalent binding to TPX [8]: bind covalently to LPX and TPX
suicide inhibition [2]: suicide inhibitors
moles of oxidant required for total reaction [9]: two
PBA/thione [10]: 1.89
benzimidazole/thione [10]: 0.89
bisulfite/thione [10]: 0.72
relative rate of oxygenation [11]: 2.3

Cn1c(S)nc2ccccc21 [MMBI, 1-methylbenzimidazole-2-thione]
TPX inactivation [5]: rapid, irreversible loss of LPX and TPX activity; also recorded: cause rapid, irreversible enzyme inactivation
partition ratio (LPX inactivation) ([6]; 25° C.): ~35
KI (inactivation) ([6]; 25° C.; read-out: Ki (LPX inactivation)): 274 nM
LPX inactivation / loss of LPX activity ([6]; presence of hydrogen peroxide): rapid, irreversible loss of LPX and TPX activity; also recorded: cause rapid, irreversible enzyme inactivation
covalent binding to LPX [7]: become covalently bound to LPX
covalent binding to TPX [8]: bind covalently to LPX and TPX
suicide inhibition [2]: suicide inhibitors
moles of oxidant required for total reaction [9]: two
equivalents of hydroperoxide required per mole of thione ([9]; hydroperoxides): 2 equivalents
PBA/thione [10]: 1.98
benzimidazole/thione [10]: 0.87
bisulfite/thione [10]: 0.72
relative rate of oxygenation [11]: 1.3

Cn1cc[nH]c1=S [MMI, 1-methylimidazole-2-thione]
suicide inhibition [12]: suicide inhibitors

CCOC(=O)n1ccn(C)c1=S [carbimazole, 1-carboxyethyl-3-methylimidazole-2-thione]
in vivo stability / conversion [13]: labile in vivo and is rapidly converted to methimazole

CCCc1cc(=O)[nH]c(=S)[nH]1 [propylthiouracil]
suicide inhibition [12]: suicide inhibitors
